≈ marks a conversion by molar mass, not a printed value.

Broadly, the solubility (kinetic) is the concentration staying in solution when a stock, usually in DMSO, is diluted into the medium.

The conditions of the data set: buffer; pH 7.4; 200.0 µM.
The molecule `O=C(NC1=NCCCCC1)c1cccc2ccccc12` registered a kinetic solubility greater than 40 µg/mL. Then `CC(C)n1cc(/C=C2/NC(=O)NC2=O)c2ccccc21`, with 0.7 µg/mL (≈ 2.6 µM). The same measure for `COc1ccc(C(=O)Nc2ccc3nc(C)c(C)nc3c2)cc1`: 5.3 µg/mL (≈ 17.2 µM). As to `Cc1ccc(S(=O)(=O)Nc2nc(C)c(C(=O)NN)s2)cc1`, the solubility (kinetic) was greater than 49 µg/mL. Then `CC(C)NC(=NCc1ccc(Cl)cc1Cl)Nc1ccccc1`, with greater than 50.4 µg/mL; and `CC(C)(CO)NC(=O)c1ccc2c(c1)C(=O)c1ccccc1-2`, with 43.7 µg/mL (≈ 148 µM). Then `Nc1nnc(SCC(=O)NC2CCCC2)s1`, with greater than 38.8 µg/mL. With `CNC(=S)c1cc(C(C)(C)C)c(O)c(C(C)(C)C)c1`, the solubility (kinetic) was 13.4 µg/mL (≈ 48 µM).

`Cc1cc(C)c(C#N)c(SCCN2CCCCC2)n1` displayed a solubility (kinetic) greater than 41.3 µg/mL. Then `Cc1c(C)n(Cc2ccccc2)c2ncnc(NCCN(C)C)c12`, with greater than 48.5 µg/mL. `CCOc1ncccc1C(=O)Nc1ccc(S(=O)(=O)N2CC(C)CC(C)C2)cc1` (stereo not drawn) came in with a kinetic solubility of 0.9 µg/mL (≈ 2.16 µM).

For `O=c1nc(SCc2c(F)cccc2Cl)nc(-c2ccccc2)[nH]1`, the solubility (kinetic) stood at 4.1 µg/mL (≈ 11.8 µM). This solubility kinetic lies about 4.6-fold higher than the previous one.

For the molecule `Nc1ncnc2nc[nH]c12`, the solubility (kinetic) was greater than 20.3 µg/mL.

Molecule `CCOc1ccc(NC(=O)CSc2nc(=O)n(Cc3cccnc3)c3c2CCC3)cc1` yielded a kinetic solubility of 4.8 µg/mL (≈ 11 µM). The same measure for `Fc1ccc(-c2csc(-c3ccccn3)n2)cc1F`: less than 0.3 µg/mL; for `Cc1csc(SCC(=O)Nc2ccc3[nH]c(=O)[nH]c3c2)n1`: greater than 48.1 µg/mL. `CCCCNS(=O)(=O)c1ccc(NC(=O)c2cccs2)cc1` gave a kinetic solubility of 1 µg/mL (≈ 2.95 µM). Then `COc1ccc(C(=O)C[n+]2ccc(N(C)C)cc2)cc1.[Cl-]`, with greater than 46 µg/mL. As for `CC(C)COc1nc2ccccc2nc1N1CCN(C)CC1`, the solubility (kinetic) amounted to 33.9 µg/mL (≈ 113 µM). Take `CCCCCC(=O)Nc1cccc(S(=O)(=O)NC2=NCCC2)c1`: the kinetic solubility was greater than 50.6 µg/mL. The same measure for `COCc1nnc(NC(=O)CCS(=O)(=O)c2ccccc2)s1`: greater than 51.2 µg/mL; for `CCOc1nc(-c2ccccc2)c2cc(Br)ccc2n1`: less than 0.4 µg/mL; for `Cc1nccc(-c2cc(-c3ccc(Cl)cc3Cl)no2)n1`: less than 0.2 µg/mL. Then `COC(=O)c1ccc(NC(=S)NN2CCOCC2)cc1`, with greater than 44.3 µg/mL; and `O=C(Cn1ccccc1=S)c1ccc(Cl)c(Cl)c1`, with 6.3 µg/mL (≈ 21.1 µM); and `COc1cc2cc(-c3ccc(OC)c(OC)c3C)nc(N)c2cc1OC`, with 46.8 µg/mL (≈ 132 µM). In the case of `CC1CCCCN1C(=O)c1ccc(Br)o1` (stereo not drawn), the kinetic solubility turned out to be 37.7 µg/mL (≈ 139 µM). This solubility kinetic and that of the molecule before are within 1.5-fold of each other. As for `Cc1nc(CC(=O)c2ccc(O)c(C)c2O)cs1`, the solubility (kinetic) came to 36.7 µg/mL (≈ 139 µM). The same measure for `O=C(CSc1ncccc1C(=O)O)NC1CCCCCCC1`: 47.3 µg/mL (≈ 147 µM); for `Cc1cc(C(=O)Nc2ccc3ccccc3c2)oc1C`: 3.8 µg/mL (≈ 14.3 µM). Then `CN(C)c1ccc(-c2nc3ccccc3c(=O)[nH]2)cc1`, with 1.9 µg/mL (≈ 7.16 µM); and `CC1Cc2ccccc2N1Cc1ccc([N+](=O)[O-])cc1` (stereo not drawn), with less than 0.3 µg/mL. `CCN1C(=O)CCC(C(=O)O)C1c1ccc(OC)cc1` (stereo not drawn) came in with a solubility (kinetic) greater than 41.6 µg/mL. Then `COc1ccc(NC(=O)c2ccc(NC(=O)c3ccncc3)cc2)cc1`, with 0.8 µg/mL (≈ 2.3 µM); and `O=c1cc(NCCc2ccccc2)c2ccccc2o1`, with 1.1 µg/mL (≈ 4.15 µM).

Consider `c1ccc2c(c1)CC(CN1CCNCC1)O2` (stereo not drawn), for which the solubility (kinetic) was greater than 32.7 µg/mL. Then `O=C(Nc1ccncc1)c1cc(S(=O)(=O)N2CCCC2)ccc1Cl`, with greater than 54.9 µg/mL; and `Cc1ccc(C)c(OC(=O)CN2C(=O)c3ccccc3C2=O)c1`, with 4 µg/mL (≈ 12.9 µM); and `CCn1c(SCC(=O)O)nc2ccccc21`, with greater than 35.4 µg/mL. Then `Nc1ccc(Oc2ccc3c(c2)OCO3)cc1`, with 27.3 µg/mL (≈ 119 µM); and `CCOc1ccccc1Nc1cc(C)nc2ccc(C)cc12`, with greater than 43.9 µg/mL; and `Cc1ccccc1COc1ccc(/C=C(\C#N)C(N)=O)cc1`, with less than 0.3 µg/mL. Then `O=C(CNS(=O)(=O)c1ccccc1)Nc1ccc(F)cc1F`, with greater than 48.9 µg/mL; and `COCCNC(=O)c1cc2sccc2n1C`, with greater than 35.7 µg/mL; and `CC1CC(C)CN(S(=O)(=O)c2cccc3nsnc23)C1` (stereo not drawn), with 8.4 µg/mL (≈ 27 µM). `Cc1nnc(SCC(=O)NC(=O)NC(C)C)s1` yielded a kinetic solubility greater than 41.2 µg/mL. Then `Clc1nc(NCc2ccco2)nc(N2CCCCC2)n1`, with 0.3 µg/mL (≈ 1.02 µM); and `Cc1ccc(C(=O)NC(=S)Nc2ccc3[nH]c(=O)[nH]c3c2)c(C)c1`, with less than 0.2 µg/mL; and `CCOC(=O)Cc1csc(-n2sc3ccccc3c2=O)n1`, with 29.8 µg/mL (≈ 93 µM).

As to `Cc1ccc(N2CN(Cc3ccco3)CNC2=S)cc1`, the solubility (kinetic) stood at 33.8 µg/mL (≈ 118 µM). In turn, `O=S(=O)(NCc1c(Cl)cccc1Oc1ccccc1)c1ccccc1` gave a solubility (kinetic) of 3 µg/mL (≈ 8.02 µM).

`Cc1ccc(CN2C(=O)c3ccccc3NC2c2ccccn2)cc1` (stereo not drawn) displayed a solubility (kinetic) greater than 49.4 µg/mL. Then `O=C(CSc1nc2ccccc2c(=O)n1CCCN1CCOCC1)NCCc1ccccc1`, with 64.3 µg/mL (≈ 138 µM).

For the origin of these results see PubChem BioAssay AID1996.
